# From patent US9340577B2, “HLA binding motifs and peptides and their uses” (priority 1992, dated 2016)
# No end group written: not given here.
# Key:
# Assay in all cases: biochemical
# Format in all cases: binding
# HLA-A3.2 (A*0301) = HLA-A3.2 (A*0301) (Homo sapiens, UniProt P04439)
# A*6801 = A*6801 (Homo sapiens, UniProt P04439, A269V/D185E/E176V/E277Q/E87N/F33Y/G231S/I121M/I166T/I218V/L180W/L300P/L318F/N151K/P208A/P217A/Q86R/R169H/T345S)
# A31 (A*3101) = A31 (A*3101) (Homo sapiens, UniProt P04439, A270S/D185E/E176V/E277Q/F33T/G231S/G80R/H175R/I121M/I218V/I322F/K168Q/L300P/L318F/M331R/P217A/Q94H/R138Q/T323A/T345S/T97I/V358M)
# HLA-A11 (A*1101) = HLA-A11 (A*1101) (Homo sapiens, UniProt P04439, A114D/D185E/E176A/F33Y/L180Q/S129P/T187R)
# A*3301 = A*3301 (Homo sapiens, UniProt P04439, A270S/D185E/E176V/E277Q/E87N/F33T/G231S/H175R/I121M/I218V/I322F/K168Q/K210R/L300P/L318F/M331R/P217A/Q86R/Q94H/R138Q/T323A/T345S/T97I/V358M/Y195H)
Sequence,IC50 (HLA-A3.2 (A*0301)),IC50 (A*6801),IC50 (A31 (A*3101)),IC50 (HLA-A11 (A*1101)),IC50 (A*3301)
LLYGPANTGK [Peptide 1587.56],14 nM,44 nM,6300 nM,8.8 nM,14500 nM
LQGKLYYKFK [Peptide 88.0184],724 nM,> 20000 nM,3710 nM,130 nM,16200 nM
LQLALEALNK [Peptide 88.0227],1100 nM,> 20000 nM,3630 nM,21 nM,> 20000 nM
LSALKLFLK [Peptide 1587.39],957 nM,2210 nM,96 nM,31 nM,1820 nM
LTNILNVLK [Peptide 1587.02],221 nM,12 nM,210 nM,4.6 nM,2030 nM
LTSQIEHWK [Peptide 88.0439],4940 nM,24 nM,8880 nM,14 nM,> 20000 nM
LTTNIHPAK [Peptide 88.0347],44 nM,16 nM,231 nM,18 nM,575 nM
LVYQDTILWK [Peptide 9012.0221],199 nM,155 nM,> 20000 nM,32 nM,> 20000 nM
LVYRDDFPY [Peptide 1581.04],7380 nM,11300 nM,> 20000 nM,58 nM,> 20000 nM
MALESILRK [Peptide 9012.0214],216 nM,433 nM,> 20000 nM,13 nM,5480 nM
MLVRFKCAK [Peptide 1587.30],151 nM,864 nM,85 nM,187 nM,983 nM
MQYVAWKYIY [Peptide 88.0233],1890 nM,12100 nM,> 20000 nM,52 nM,> 20000 nM
MTDAGTWDK [Peptide 88.0400],1580 nM,28 nM,> 20000 nM,12 nM,> 20000 nM
MTYVAWDSVY [Peptide 1589.07],616 nM,73 nM,19400 nM,892 nM,> 20000 nM
NLQGKLYYK [Peptide 88.0375],277 nM,98 nM,363 nM,55 nM,9.4 nM
NSNAAAFLK [Peptide 88.0342],955 nM,22 nM,2640 nM,19 nM,665 nM
NSNAAAFLR [Peptide 88.0387],> 20000 nM,20 nM,158 nM,213 nM,50 nM
NSNASAFLK [Peptide 1587.07],426 nM,27 nM,3400 nM,13 nM,269 nM
NVAPIVHLK [Peptide 1589.21],6380 nM,2.4 nM,> 20000 nM,394 nM,> 20000 nM
QQLLFIHFR [Peptide 9017.0111],1800 nM,17 nM,2 nM,4.8 nM,41 nM
QQMFLGTVK [Peptide 88.0415],2040 nM,1580 nM,7170 nM,22 nM,> 20000 nM
QSNPYPEPK [Peptide 9017.0070],1040 nM,868 nM,513 nM,46 nM,> 20000 nM
QTCALYWFR [Peptide 88.0361],1960 nM,18 nM,51 nM,64 nM,19 nM
QVVPALSVSK [Peptide 1589.13],825 nM,12 nM,8920 nM,25 nM,> 20000 nM
QVVPAYNISK [Peptide 1589.06],326 nM,7.6 nM,6660 nM,15 nM,> 20000 nM
QVVPPINISK [Peptide 1589.23],1280 nM,14 nM,1560 nM,11 nM,> 20000 nM
RINTWKSLVK [Peptide 9017.0215],12 nM,11500 nM,632 nM,10 nM,> 20000 nM
RLECAIYYK [Peptide 1589.01],55 nM,7020 nM,150 nM,30 nM,6550 nM

Sequence,IC50 (HLA-A3.2 (A*0301)),IC50 (A*6801),IC50 (A31 (A*3101)),IC50 (HLA-A11 (A*1101)),IC50 (A*3301)
RLECVLMYK [Peptide 1589.12],8.7 nM,3630 nM,44 nM,21 nM,828 nM
RLIERIRER [Peptide 9017.0124],57 nM,983 nM,14 nM,407 nM,1100 nM
RLKAICIEK [Peptide 1587.01],43 nM,> 20000 nM,20 nM,520 nM,> 20000 nM
RLLKETELRK [Peptide 9012.0248],27 nM,12800 nM,7010 nM,52 nM,> 20000 nM
RQMNMSQWIK [Peptide 1587.54],18 nM,3110 nM,41 nM,7.5 nM,> 20000 nM
RQMSMGQWIK [Peptide 1587.35],53 nM,2230 nM,48 nM,6 nM,> 20000 nM
RVLQGLPREK [Peptide 9012.0238],38 nM,14400 nM,88 nM,35 nM,> 20000 nM
SFFQNLQVIR [Peptide 9012.0232],3800 nM,1400 nM,432 nM,3990 nM,702 nM
SFFSRTWCR [Peptide 1587.42],2380 nM,28 nM,2.2 nM,155 nM,3.5 nM
SFFSRTWSR [Peptide 1587.16],1140 nM,3.6 nM,0.29 nM,26 nM,0.59 nM
SFMELVRPFK [Peptide 88.0163],2020 nM,1390 nM,7.7 nM,199 nM,3.3 nM
SFSELVRPFK [Peptide 1587.03],4250 nM,5340 nM,2 nM,551 nM,24 nM
SIVGWPAVR [Peptide 9017.0058],1090 nM,21 nM,79 nM,632 nM,469 nM
SQIEHWKLIR [Peptide 88.0213],16600 nM,1330 nM,515 nM,86 nM,> 20000 nM
SQWIKYRCDR [Peptide 88.0136],19100 nM,> 20000 nM,418 nM,11000 nM,2710 nM
SSCMGGMNR [Peptide 1556.59],206 nM,110 nM,54 nM,16 nM,39 nM
SSIVGWPAVR [Peptide 9017.0185],3170 nM,14 nM,26 nM,22 nM,648 nM
STAAALYWYR [Peptide 1587.32],89 nM,4.1 nM,2.4 nM,4 nM,28 nM
STCMGGMNR [Peptide 1556.61],281 nM,1630 nM,157 nM,1100 nM,17900 nM
STVSVGTAK [Peptide 1589.09],34 nM,9.9 nM,1760 nM,6 nM,16000 nM
STWHWTGCNK [Peptide 1589.28],72 nM,32 nM,160 nM,15 nM,1900 nM
SVAALYWYR [Peptide 88.0341],32 nM,4.1 nM,3.7 nM,4.5 nM,0.87 nM
SVICFVNSK [Peptide 1587.15],109 nM,8.6 nM,1910 nM,3.5 nM,2850 nM
SVRKLTEDR [Peptide 9017.0106],16800 nM,226 nM,48 nM,7640 nM,646 nM
SVYGDTLEK [Peptide 78.0277],72 nM,17 nM,> 20000 nM,14 nM,> 20000 nM
SVYGETLEK [Peptide 78.0291],347 nM,2620 nM,> 20000 nM,166 nM,> 20000 nM
SVYGTTLEK [Peptide 78.0282],19 nM,15 nM,8880 nM,3.8 nM,> 20000 nM
